As a reminder, the IC50 is the concentration at which inhibition is half-maximal. What is called EC50 is the midpoint of the concentration-response curve.

Entries after “also recorded” stand apart in the source; their conditions may differ. Where two headings read alike, the source gives them in different places.

The target of assay [1] is T1, human constitutive proteasome β5c (Homo sapiens, UniProt P28074).
T1 construct: purchased Boston Biochem Inc
The experiment in a line: IC50 against chymotryptic β5c activity of human constitutive proteasome (96-well plate, Suc-LLVY-AMC). Format: biochemical. The method, then:
A 96-well-plate assays were used to determine the IC50s against the chymotryptic β5 activities of the proteasomes. Both human constitutive proteasome and immunoproteasome were purchased from Boston Biochem Inc. 1 μL of 100× compound in DMSO at designated concentrations were spotted at the bottom of the wells. DMSO was used as a control. Final concentrations of the inhibitors were from 100 μM to 0.098 μM. The hydrolysis of the substrate over time in each well was monitored at excitation 360 nm, emission 460 nm for 90 minutes. IC50s were estimated by fitting the velocities of hydrolysis against compound concentrations using PRISM. […] Suc-LLVY-AMC was used for βc at final concentration of 25 μM, and Ac-ANW-AMC for b5i at final concentration of 15 μM. SDS (0.02%) was used as activator, and 0.01% BSA was used in the reaction buffer.
The foregoing features of these AsnEDA encouraged a further round of SAR studies (Table 5) based on varying the carboxylic acid at the ethylenediamine, the N-cap at the Asn, and the side chain of the Asn, based on PKS21004. All compounds listed in the Table 5 were synthesized as described in Examples 6-77. All final compounds were confirmed by NMR and HRMS. IC50s of all compounds against β5i and β5c (Table 5), β1i, β2i, β1c and β2c were determined following a reported method (Lin et al., “N,C-Capped Dipeptides With Selectivity for Mycobacterial Proteasome Over Human Proteasomes: Role of S3 and S1Binding Pockets,” J Am Chem Soc. 135:9968-9971 (2013), which is hereby incorporated by reference in its entirety). […] The [1,1′-biphenyl]-3-carboxamide of PKS21004 was then modified with the following substituents: 4′-fluoro (PKS21026), 4′-cyano (PKS21028), 4-fluoro (PKS21196), 4,3′-difluoro (PKS21195) and 4,2′-difluoro (PKS21187).

Assay [2] concerns the target T2, β5i in Karpas 1106P cells (Homo sapiens, UniProt P28062).
T2 construct: endogenous in cells; host or cells: Karpas 1106P
Description: Intracellular β5i inhibition in Karpas 1106P cells ((Ac-ANW)2-R110). Format: cell-based. The conditions noted are these: 2 hours treatment. An excerpt: (§1) Data were average of three independent experiments.
(§2) IC50 values with both substrates were identical and indicated cell-penetrating ability. […] No β5i activity was detected in HepG2 cells using (Ac-ANW)2—R110 as substrate (FIG. 2A).

Assay [3] deals with T3, human immunoproteasome β5i (Homo sapiens, UniProt P28062).
T3 construct: purchased Boston Biochem Inc
The experiment in a line: IC50 against chymotryptic β5i activity of human immunoproteasome (96-well plate, Ac-ANW-AMC). The assay is classed as biochemical. The method, then: A 96-well-plate assays were used to determine the IC50s against the chymotryptic β5 activities of the proteasomes. Both human constitutive proteasome and immunoproteasome were purchased from Boston Biochem Inc. 1 μL of 100× compound in DMSO at designated concentrations were spotted at the bottom of the wells. DMSO was used as a control. […] The hydrolysis of the substrate over time in each well was monitored at excitation 360 nm, emission 460 nm for 90 minutes. IC50s were estimated by fitting the velocities of hydrolysis against compound concentrations using PRISM. […] SDS (0.02%) was used as activator, and 0.01% BSA was used in the reaction buffer.

Assay [4] has as its target T4, hu i-20S β5i (Homo sapiens, UniProt P28062).
T4 construct: purchased Boston Biochem Inc
Description: Kinetic analysis, substrate titration of hu i-20S steady state velocities. The assay is classed as biochemical. The method, then:
FIGS. 1A-1E are graphs showing inhibition modality of PKS21004 against human proteasomes. Washout of c-20S from the preincubated c-20S and […] to recover the β5c activity (FIG. 1A). Substrate titration of hu i-20S (FIG. 1B) and c-20S (FIG. 1D) steady state velocities in the presence of PKS21004 at the concentrations indicated next to each curve. Data as in (FIG. 1B) were plotted double reciprocal in (FIG. 1C), and (FIG. 1D) in (FIG. 1E).
A washout experiment was used to confirm the reversibility of this class of proteasome inhibitors, as expected from their non-covalent chemistry.

For assay [5], the target named is T5, β5c in HepG2 cells (Homo sapiens, UniProt P28074).
T5 construct: endogenous in cells; host or cells: HepG2
Description: Intracellular β5c inhibition in HepG2 cells (suc-LLVY-luciferin). The conditions noted are these: 2 hours treatment, read-out: IC50 HepG β5c. Format: cell-based.
Excerpt: as §1, §2

The test system of assay [6] is Karpas1106P B lymphoma cells. The experiment in a line: Cell viability assay, Karpas1106P. Format: cell-based. The conditions noted are these: Homo sapiens, Karpas-1106P; cytotoxicity, 72 hours. As to the method:
(§3) Multiple myeloma cell lines MM.1 S (200,000 cells/mL) and RPMI 8226 (200,000 cells/mL), B lymphoma cell line Karpas1106P (800,000 cells/mL), and liver cancer cell line HepG2 (12,000 cells/mL) were used to determine the cytotoxicity of compounds. Cells were cultured at 37° C. in a humidified air/5% CO2 atmosphere in medium supplemented with 10% fetal bovine serum, except for the medium for Karpas-1106P cells which contained 20% fetal bovine serum, and 100 units/ml penicillin/100 […] streptomycin in RPMI 1640 medium. 12,000 cells/well. Cells plated in a 96-well plate were treated with compounds at the indicated concentrations for 72 hours at 37° C. in a tissue culture incubator with 5% CO2. Viable cells were counted using Cell-titer/glom assay kit. EC50s were calculated using PRISM (Graphpad).

Assay [7] has as its system HepG2 liver cancer cells. The experiment in a line: Cell viability assay, HepG2. The assay is classed as cell-based. The conditions noted are these: Homo sapiens, cytotoxicity, 72 hours. As to the method:
as §3

The test system of assay [8] is Plasmodium falciparum. Description: Growth of Plasmodium falciparum in red blood cells (SYBR Green, 72 hours). The assay is classed as cell-based. The conditions noted are these: Erythrocyte, P.f. 3D7, growth in red blood cells, read-out: EC50 (nM) (P.f.). The method, then: Continuous in vitro cultures of Plasmodium falciparum: were maintained in human red blood cells (RBC) diluted to a hematocrit of 5% in RPMI 1640 medium with HEPES and Hypoxanthine and completed with 0.5% Albumax II (Invitrogen), 0.25% sodium bicarbonate, and 0.1 mg/ml gentamicin. Parasites were incubated at 37° C. in a gas mixture of 5% oxygen, 5% carbon dioxide, and 90% nitrogen.
Parasite sensitivity to novel compounds were determined using a SYBR Green (Invitrogen S1046) drug assay protocol. P. falciparum of various clinic stains were cultured with compounds at concentrations in a series of dilution in a clear, sterile 96-well plate for 72 hours. Subsequently, 150 μl of the cultures were transferred to a black 96-well plate and placed in the freezer for red blood cell lysis. The plates were thawed and suspended in a Sybr Green Lysis buffer. GraphPad Prism was used to analyze the raw data collected […]. Drug concentrations were converted to logarithms, normalized, and then curve fitted by non-linear regression to obtain EC50 values.
Plasmodium falciparum: parasites were cultured in human red cells. Drug assays were run in 96 well plates at a total volume of 200 μl. Assays were set up at a starting parasitemia (percent of infected red cells) of 0.5%. Test compounds were plated at concentrations of 2778 nM to 0.4 nM. The test plates were grown under standard low oxygen conditions at 37° C. for 72 hours. At that time the plates were prepared for growth determination, first the plates were frozen and thawed to lyse the red blood cells, 150 μl of the lysed thawed culture was transferred to a black 96 well plate, and mixed in a lysis buffer with SYBR green DNA dye. The fluorescence of each well was recorded in a plate reader with excitation wavelength 490 nm and emission wavelength 530 nm and normalized relative to DMSO control. The EC50s were determined using Prism software.

Assay [9] concerns β5 in Karpas 1106P cells. Description: Intracellular β5 inhibition in Karpas 1106P cells (suc-LLVY-luciferin). The assay is classed as cell-based. The conditions noted are these: 2 hours treatment.
Excerpt: as §1, §2

Assay [10] deals with MM1.S multiple myeloma cells. The experiment in a line: Cell viability assay, MM.1S. The assay is classed as cell-based. The conditions noted are these: Homo sapiens, cytotoxicity, 72 hours. As to the method: as §3
Assay [11] relates to RPMI 8226 multiple myeloma cells. The experiment in a line: Cell viability assay, RPMI 8226. The assay is classed as cell-based. The conditions noted are these: Homo sapiens, cytotoxicity, 72 hours. As to the method: as §3

Take `Cc1ccc(S(=O)(=O)N[C@@H](CC(=O)NC(C)(C)C)C(=O)NCCNC(=O)c2cc(-c3ccccc3F)ccc2F)cc1` [PKS21221]: the IC50 in assay [1] came to 106 nM; in [1] (b406, read-out: IC50 against β5c), 70 nM; in [2], 172 nM; in assay [3] (IC50 Hu i-20S (Ac-ANW-AMC), β5i, substrate Ac-ANW-AMC) it was 4.1 nM; in [3] (b406, read-out: IC50 against β5i), 2.4 nM; in assay [5] it was 2000 nM. The same compound yielded an IC50 in assay [9] of 118 nM. The “α for i-20S (β5i)” value in [4] (fit to equation for noncompetitive inhibitors) came to 0.26. In addition, in [4] (with respect to substrate), the “modality of inhibition of β5i” value was “noncompetitively inhibits; also recorded: noncompetitive”. Besides, the EC50 in [6] turned out to be 840 nM; in assay [7], 3000 nM; in [8] it was 0.55 nM; in assay [10], 95 nM; in assay [11] it was 75 nM.
